Reference: the supplement of paper PMC10627819

Tests used:
S. aureus DSM 20231 = assay: fitness (endpoint OD595 vs no drug) (fraction); higher = more growth
In short: (§1)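 Fitness expresses the optical density reached at the stationary-phase transition as a fraction of the robust mean of no-drug control wells. It is capped at 1. Measurements were OD595 every 30 min for 14 h at 37 °C after inoculation of 384-well plates at OD595 0.01 (30 µl, or 55 µl for S. pneumoniae), minus the first reading.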

S. pneumoniae D39V = assay: as above
In short: as §1

[1] = first compound 250 µg/mL, partner 85.5 µg/mL
[2] = first compound 250 µg/mL, partner 171 µg/mL
[3] = first compound 250 µg/mL, partner 342 µg/mL
[4] = first compound 500 µg/mL, partner 85.5 µg/mL
[5] = first compound 500 µg/mL, partner 171 µg/mL
[6] = first compound 250 µg/mL, partner 0.0625 µg/mL
[7] = first compound 250 µg/mL, partner 0.125 µg/mL
[8] = first compound 250 µg/mL, partner 0.25 µg/mL
[9] = first compound 500 µg/mL, partner 0.25 µg/mL
[10] = first compound 1000 µg/mL, partner 0.25 µg/mL
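Also: OD595 on entry to stationary phase over no-drug wells; at most 1.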

## CN(C)[C@@H]1C(O)=C(C(N)=O)C(=O)[C@@]2(O)C(O)=C3C(=O)c4c(O)ccc(Cl)c4[C@@](C)(O)[C@H]3C[C@@H]12 [Chlortetracycline] + CO[C@@]12[C@H](COC(N)=O)C3=C(C(=O)C(C)=C(N)C3=O)N1C[C@@H]1N[C@@H]12 [Mitomycin C]
S. aureus DSM 20231; first compound 0.006 µg/mL, partner 0.0156 µg/mL, one replicate
  fitness: 0.65
S. aureus DSM 20231; first compound 0.006 µg/mL, partner 0.0312 µg/mL, one replicate
  fitness: 0.64
S. aureus DSM 20231; first compound 0.006 µg/mL, partner 0.0625 µg/mL, one replicate
  fitness: 0.542
S. aureus DSM 20231; first compound 0.012 µg/mL, partner 0.0156 µg/mL
  fitness: 0.55
S. aureus DSM 20231; first compound 0.012 µg/mL, partner 0.0312 µg/mL
  fitness: 0.52
S. aureus DSM 20231; first compound 0.012 µg/mL, partner 0.0625 µg/mL
  fitness: 0.384
S. aureus DSM 20231; first compound 0.024 µg/mL, partner 0.0156 µg/mL
  fitness: 0.288
S. aureus DSM 20231; first compound 0.024 µg/mL, partner 0.0312 µg/mL
  fitness: 0.224
S. aureus DSM 20231; first compound 0.024 µg/mL, partner 0.0625 µg/mL
  fitness: 0.174
S. aureus DSM 20231; first compound 0.048 µg/mL, partner 0.0156 µg/mL
  fitness: 0.0746
S. aureus DSM 20231; first compound 0.048 µg/mL, partner 0.0312 µg/mL
  fitness: 0.0614
S. aureus DSM 20231; first compound 0.048 µg/mL, partner 0.0625 µg/mL
  fitness: 0.17
S. pneumoniae D39V; first compound 0.012 µg/mL, partner 0.001075 µg/mL
  fitness: 0.924
S. pneumoniae D39V; first compound 0.012 µg/mL, partner 0.00215 µg/mL
  fitness: 0.853
S. pneumoniae D39V; first compound 0.012 µg/mL, partner 0.0043 µg/mL
  fitness: 0.687
S. pneumoniae D39V; first compound 0.024 µg/mL, partner 0.001075 µg/mL
  fitness: 0.895
S. pneumoniae D39V; first compound 0.024 µg/mL, partner 0.00215 µg/mL
  fitness: 0.832
S. pneumoniae D39V; first compound 0.024 µg/mL, partner 0.0043 µg/mL
  fitness: 0.713
S. pneumoniae D39V; first compound 0.048 µg/mL, partner 0.001075 µg/mL
  fitness: 0.824
S. pneumoniae D39V; first compound 0.048 µg/mL, partner 0.00215 µg/mL
  fitness: 0.788
S. pneumoniae D39V; first compound 0.048 µg/mL, partner 0.0043 µg/mL
  fitness: 0.645
S. pneumoniae D39V; first compound 0.375 µg/mL, partner 0.002 µg/mL
  fitness: 0.0654
S. pneumoniae D39V; first compound 0.375 µg/mL, partner 0.004 µg/mL
  fitness: 0.0793
S. pneumoniae D39V; first compound 0.375 µg/mL, partner 0.008 µg/mL
  fitness: 0.0339
S. pneumoniae D39V; first compound 0.75 µg/mL, partner 0.002 µg/mL
  fitness: 0.0249
S. pneumoniae D39V; first compound 0.75 µg/mL, partner 0.004 µg/mL
  fitness: 0.0699
S. pneumoniae D39V; first compound 0.75 µg/mL, partner 0.008 µg/mL
  fitness: 0.0265
S. pneumoniae D39V; first compound 1.5 µg/mL, partner 0.002 µg/mL
  fitness: 0.0576
S. pneumoniae D39V; first compound 1.5 µg/mL, partner 0.004 µg/mL
  fitness: 0.0536
S. pneumoniae D39V; first compound 1.5 µg/mL, partner 0.008 µg/mL
  fitness: 0.0168

## CC(=O)Oc1ccccc1C(=O)O [Acetylsalicylic acid] + CCN(CC)CCOC(=O)c1ccc(N)cc1 [Procaine]
S. aureus DSM 20231; [1]
  fitness: 0.916
S. aureus DSM 20231; [2]
  fitness: 0.971
S. aureus DSM 20231; [3]
  fitness: 0.963
S. aureus DSM 20231; [4]
  fitness: 0.849
S. aureus DSM 20231; [5]
  fitness: 0.896
S. pneumoniae D39V; [1]
  fitness: ≥ 1
S. pneumoniae D39V; [2]
  fitness: 0.989
S. pneumoniae D39V; [3]
  fitness: 0.966
S. pneumoniae D39V; [4]
  fitness: ≥ 1
S. pneumoniae D39V; [5]
  fitness: 0.995
S. pneumoniae D39V; first compound 500 µg/mL, partner 342 µg/mL
  fitness: 0.97
S. pneumoniae D39V; first compound 1000 µg/mL, partner 85.5 µg/mL
  fitness: 0.922
S. pneumoniae D39V; first compound 1000 µg/mL, partner 171 µg/mL
  fitness: 0.86
S. pneumoniae D39V; first compound 1000 µg/mL, partner 342 µg/mL
  fitness: 0.89

## CN(C)[C@@H]1C(O)=C(C(N)=O)C(=O)[C@@]2(O)C(O)=C3C(=O)c4c(O)ccc(Cl)c4[C@@](C)(O)[C@H]3C[C@@H]12 [Chlortetracycline] + CO/N=C(\C(=O)N[C@@H]1C(=O)N2C(C(=O)[O-])=C(C[N+]3(C)CCCC3)CS[C@H]12)c1csc(N)n1 [Cefepime]
S. aureus DSM 20231; first compound 0.006 µg/mL, partner 0.125 µg/mL, one replicate
  fitness: 0.792
S. aureus DSM 20231; first compound 0.006 µg/mL, partner 0.25 µg/mL, one replicate
  fitness: 0.774
S. aureus DSM 20231; first compound 0.006 µg/mL, partner 0.5 µg/mL, one replicate
  fitness: 0.722
S. aureus DSM 20231; first compound 0.012 µg/mL, partner 0.125 µg/mL
  fitness: 0.63
S. aureus DSM 20231; first compound 0.012 µg/mL, partner 0.25 µg/mL
  fitness: 0.617
S. aureus DSM 20231; first compound 0.012 µg/mL, partner 0.5 µg/mL
  fitness: 0.636
S. aureus DSM 20231; first compound 0.024 µg/mL, partner 0.125 µg/mL
  fitness: 0.388
S. aureus DSM 20231; first compound 0.048 µg/mL, partner 0.125 µg/mL
  fitness: 0.274
S. aureus DSM 20231; first compound 0.048 µg/mL, partner 0.25 µg/mL
  fitness: 0.304
S. aureus DSM 20231; first compound 0.048 µg/mL, partner 0.5 µg/mL
  fitness: 0.274
S. pneumoniae D39V; first compound 0.012 µg/mL, partner 0.007 µg/mL
  fitness: 0.964
S. pneumoniae D39V; first compound 0.012 µg/mL, partner 0.014 µg/mL
  fitness: 0.949
S. pneumoniae D39V; first compound 0.012 µg/mL, partner 0.028 µg/mL
  fitness: 0.836
S. pneumoniae D39V; first compound 0.024 µg/mL, partner 0.007 µg/mL
  fitness: 0.936
S. pneumoniae D39V; first compound 0.024 µg/mL, partner 0.014 µg/mL
  fitness: 0.86
S. pneumoniae D39V; first compound 0.024 µg/mL, partner 0.028 µg/mL
  fitness: 0.811
S. pneumoniae D39V; first compound 0.048 µg/mL, partner 0.007 µg/mL
  fitness: 0.659
S. pneumoniae D39V; first compound 0.048 µg/mL, partner 0.014 µg/mL
  fitness: 0.661
S. pneumoniae D39V; first compound 0.048 µg/mL, partner 0.028 µg/mL
  fitness: 0.693
S. pneumoniae D39V; first compound 0.375 µg/mL, partner 0.0078 µg/mL
  fitness: 0.0772
S. pneumoniae D39V; first compound 0.375 µg/mL, partner 0.0155 µg/mL
  fitness: 0.049
S. pneumoniae D39V; first compound 0.375 µg/mL, partner 0.031 µg/mL
  fitness: 0.0797
S. pneumoniae D39V; first compound 0.75 µg/mL, partner 0.0078 µg/mL
  fitness: 0.0925
S. pneumoniae D39V; first compound 0.75 µg/mL, partner 0.0155 µg/mL
  fitness: 0.0687
S. pneumoniae D39V; first compound 0.75 µg/mL, partner 0.031 µg/mL
  fitness: 0.0749
S. pneumoniae D39V; first compound 1.5 µg/mL, partner 0.0078 µg/mL
  fitness: 0.0695
S. pneumoniae D39V; first compound 1.5 µg/mL, partner 0.0155 µg/mL
  fitness: 0.0769
S. pneumoniae D39V; first compound 1.5 µg/mL, partner 0.031 µg/mL
  fitness: 0.0751

## CC(=O)Oc1ccccc1C(=O)O [Acetylsalicylic acid] + Cn1nnc(-c2ccc(-c3ccc(N4C[C@H](CO)OC4=O)cc3F)cn2)n1 [Tedizolid]
S. aureus DSM 20231; [6]
  fitness: 0.839
S. aureus DSM 20231; [7]
  fitness: 0.778
S. aureus DSM 20231; [8]
  fitness: 0.403
S. aureus DSM 20231; [9]
  fitness: 0.327
S. aureus DSM 20231; [10]
  fitness: 0.128
S. pneumoniae D39V; first compound 250 µg/mL, partner 0.03125 µg/mL
  fitness: 0.968
S. pneumoniae D39V; [6]
  fitness: 0.989
S. pneumoniae D39V; [7]
  fitness: 0.864
S. pneumoniae D39V; [8]
  fitness: 0.534
S. pneumoniae D39V; first compound 250 µg/mL, partner 0.5 µg/mL
  fitness: 0.208
S. pneumoniae D39V; first compound 500 µg/mL, partner 0.03125 µg/mL
  fitness: 0.989
S. pneumoniae D39V; first compound 500 µg/mL, partner 0.0625 µg/mL
  fitness: 0.986
S. pneumoniae D39V; first compound 500 µg/mL, partner 0.125 µg/mL
  fitness: 0.789
S. pneumoniae D39V; [9]
  fitness: 0.472
S. pneumoniae D39V; first compound 500 µg/mL, partner 0.5 µg/mL
  fitness: 0.175
S. pneumoniae D39V; first compound 1000 µg/mL, partner 0.03125 µg/mL
  fitness: 0.966
S. pneumoniae D39V; first compound 1000 µg/mL, partner 0.0625 µg/mL
  fitness: 0.962
S. pneumoniae D39V; first compound 1000 µg/mL, partner 0.125 µg/mL
  fitness: 0.728
S. pneumoniae D39V; [10]
  fitness: 0.385
S. pneumoniae D39V; first compound 1000 µg/mL, partner 0.5 µg/mL
  fitness: 0.16
